Assay results published in paper PMC5807214 (ACS infectious diseases, 2017).

What was measured:
MexG-HAWA = target: T1, MexG-HAWA (Pseudomonas aeruginosa, UniProt Q9HWH6, H95A/W98A); assay: intrinsic tryptophan fluorescence quenching; type: binding
T1 sequence (Q9HWH6 1-148 H95A/W98A): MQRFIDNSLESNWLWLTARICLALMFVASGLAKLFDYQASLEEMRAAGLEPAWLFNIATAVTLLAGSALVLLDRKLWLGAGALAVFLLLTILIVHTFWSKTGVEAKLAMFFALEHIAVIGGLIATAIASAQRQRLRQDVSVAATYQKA

MexG = MexG (Pseudomonas aeruginosa, UniProt Q9HWH6); assay: intrinsic tryptophan fluorescence quenching; type: binding

## Cn1c2cccc(=O)c-2nc2ccccc21 [pyocyanin]
MexG-HAWA
  Kd: ~7 µM
MexG
  Kd: ~0.6 µM
